Values quoted from earlier work as cited in patent US11351213B2, “Composition for the prevention and/or treatment of respiratory tract disorders” (NEILOS S.R.L., priority 2017, dated 2022).

Legend:
[1] = not given; remark: listed apart in the source
[2] = tested on: patients affected by COPD; conditions: HIACE study
[3] = COPD patients under treatment for six months

SMILES	activity on bronchi in vitro	activity on bronchi in vivo [1]	exacerbations ([2]; COPD, reduction from 1.71 times a year)	forced expiratory flow ([2]; patients affected by COPD)	reduction of days of malaise (COPD patients; COPD)	reduction of exacerbations of the pathology (COPD patients; COPD)	reduction of hospitalisations for COPD (COPD patients; COPD)	FEV1 (forced expiratory volume at the first second) (COPD patients; [3])	maximum expiratory flow (COPD patients; [3])	FEV1 (COPD patients; after a brief therapy of 4 weeks)
O[C@H]1CCN2Cc3ccccc3N=C12 [vasicine]	bronchodilating activity	bronchodilating activity	–	–	–	–	–	–	–	–
O=c1c2ccccc2nc2n1CC[C@@H]2O [Vasicinone, vasicinone]	bronchodilating activity	bronchoconstricting activity	–	–	–	–	–	–	–	–
CC(=O)N[C@@H](CS)C(=O)O [NAC, N-acetyl-L-cysteine]	–	–	0.96 times a year	rose from 25% to 75%	0.56 days/month	0.07 exacerbations/month	30%	significant increase	significant increase	from 25% to 30%
